Experimental findings from patent publication US20190022225A1, “PROTOCOL FOR INCREASING LIFE EXPECTANCY IN A TEST SUBJECT” (Mayo Foundation for Medical Education and Research, priority 2015, published 2019) are described below.

Each structure is given as a SMILES string.

Series [1] has as its system non-senescent foreskin fibroblasts (HCA2), lung fibroblasts (IMR90), mouse embryonic fibroblasts (MEF). In words: Nutlin-3a toxicity, cell counts of non-senescent fibroblasts. Type of series: cell-based, human; mouse. Particulars: 0, 2.5, 10 μM, 9 days. The method, then: Non-senescent foreskin fibroblasts (HCA2), lung fibroblasts (IMR90), and mouse embryonic fibroblasts (MEF) were treated with varying concentrations (0, 2.5 μM, and 10 μM) of Nutlin-3a for a period of 9 days to assess Nutlin-3a toxicity. Cell counts were taken at the start (NS start) and end of Nutlin-3a treatment. The difference between counts of cells not treated with Nutlin-3a on day 9 (NS 0) and cell counts determined at day zero (NS start) reflects the cell growth over the indicated time period. […] Decrease in apparent survival between NS 0 and NS 2.5 and between NS 0 and NS 10 reflects a decrease in cell growth. Without wishing to be bound by theory, Nutlin-3a may stabilize p53, leading to cell cycle growth arrest.

The subject of series [2] is doxorubicin-induced senescent cells in p16-3MR mice. Briefly: Nutlin-3a treatment of p16-3MR transgenic mice with doxorubicin-induced senescence. Particulars: for cells with DNA damage (γH2AX positive) in lung sections: day 35, versus doxorubicin alone. The format is in vivo, mouse. Here is the method: The capability of Nutlin-3a to remove senescent cells in vivo was determined in transgenic p16-3MR mice (see, e.g., International Application Publication No. WO2013/090645). The transgenic mouse comprises a p16^Ink4a promoter operatively linked to a trimodal fusion protein for detecting senescent cells and for selective clearance of senescent cells in these transgenic mice, which is illustrated in FIG. 7. The promoter, p16^Ink4a, which is transcriptionally active in senescent cells but not in non-senescent cells (see, e.g., Wang et al., J. Biol. Chem. 276:48655-61 (2001); Baker et al., Nature 479:232-36 (2011)) was engineered into a nucleic acid construct. 3MR (tri-modality reporter) is a fusion protein containing functional domains of a synthetic Renilla luciferase (LUC), monomeric red fluorescence protein (mRFP), and truncated herpes simplex virus (HSV)-1 thymidine kinase (tTK), which allows killing by ganciclovir (GCV) (see, e.g., Ray et al., Cancer Res. 64:1323-30 (2004))). The 3MR cDNA was inserted in frame with p16 in exon 2, creating a fusion protein containing the first 62 amino acids of p16, but not a full-length wild-type p16 protein. […] The p16^Ink4a gene promoter (approximately […]) was introduced upstream of a nucleotide sequence encoding a trimodal reporter fusion protein. Alternatively, a truncated p16^Ink4a promoter may be used (see, e.g., Baker et al., Nature, supra; International Application Publication No. WO2012/177927; Wang et al., supra).). Thus, the expression of 3MR is driven by the p16^Ink4a promoter in senescent cells only. The detectable markers, LUC and mRFP permitted detection of senescent cells by bioluminescence and fluorescence, respectively. The expression of tTK permitted selective killing of senescent cells by exposure to the pro-drug ganciclovir (GCV), which is converted to a cytotoxic moiety by tTK. Transgenic founder animals, which have a C57B16 background, were established and bred using known procedures for introducing transgenes into animals (see, e.g., Baker et al., Nature 479:232-36 (2011)). Female C57/BL6 p16-3MR mice were randomized into doxorubicin+Nutlin-3a treated or doxorubicin only treated groups (see FIG. 6). Senescence was induced by intraperitoneal administration of doxorubicin at 10 mg/kg to the mice ten days prior to administration of Nutlin-3a (Day −10). Nutlin-3a (25 mg/kg) was administered intraperitoneally daily from day 10 to day 24 post-doxorubicin treatment (Group=9 mice). Control mice (doxorubicin treated) were injected with equal volumes of PBS (Group=3 mice). Luminescence imaging (Xenogen Imaging system) was performed at Day 0 (i.e., 10 days post-doxorubicin treatment) as a baseline for each mouse (100% intensity).
Luminescence imaging of the mice was performed on day 7, 14, 21, 28, and 35 following the initiation of Nutlin-3a treatment. Reduction of luminescence (L) was calculated as: L=(Imaging post-Nutlin-3a treatment)/(Baseline Imaging) %. If L is greater than or equal to 100%, the number of senescent cells was not reduced. If L is less than 100%, then the number of senescent cells was reduced. Every mouse was calculated independently, and background was subtracted from each sample.
Experiments were performed to determine the effect of Nutlin-3a treatment on expression of genes associated with senescence. Groups of female C57/BL6 p16-3MR were treated as described above. Three weeks after the end of Nutlin-3a treatment (day 35), the doxorubicin treated mice (control) (N=3) and doxorubicin+Nutlin-3a-treated mice (N=6) were sacrificed. Skin and fat biopsies were collected for RNA extraction; fat biopsies were collected for detection of senescence-associated β-galactosidase; and lungs were flash frozen in cryoprotectant OCT media for cryostat sectioning. […]

Series [3] has as its system p16-3MR mice fed a high fat diet. Briefly: Glucose tolerance, insulin tolerance and body parameters in high fat fed p16-3MR mice. Type of series: in vivo, mouse.
Procedure: Groups of p16-3MR mice (n=9) were fed a high fat diet for four months mice or a regular chow diet. Animals were then treated with ganciclovir (3 rounds of 25 mg/kg ganciclovir administered daily for five consecutive days) or vehicle. A glucose bolus was given at time zero, and blood glucose was monitored at 20, 30, 60, and 120 minutes after delivering glucose to determine glucose disposal (see FIG. 69A). […] Insulin sensitivity was also determined (Insulin Tolerance Testing (ITT)). […] Changes in weight, body composition, and food intake were also monitored.

In the case of `COc1ccc(C2=N[C@@H](c3ccc(Cl)cc3)[C@@H](c3ccc(Cl)cc3)N2C(=O)N2CCNC(=O)C2)c(OC(C)C)c1` [Nutlin-3a], in series [1], the “toxicity to non-senescent fibroblasts (percent growth)” value is on record as “reduces proliferation but is non-toxic”. In addition, in series [2] (25 mg/kg intraperitoneally daily, day 10 to 24 post-doxorubicin), the “luminescence associated with doxorubicin-induced senescence” value is given as “reduced luminescence”. In series [2] (day 14, day 28 and day 35 after start of treatment), the “luminescence, statistical significance at time points” value was “statistically significant decrease”. Besides, in series [2] (day 35, relative to actin mRNA), the “mRNA of SASP factors (mmp-3, IL-6) and senescence markers (p21, p16, p53) in skin and fat” value is “reduced expression”. Besides, the figures for the “cells with DNA damage (γH2AX positive) in lung sections” value in series [2] and in series [2] (listed as nutlin-3A) were “reduced the number of cells with doxorubicin-induced DNA damage” and “reduced the number of cells with DNA damage”, respectively. Moreover, the “senescence-associated β-gal intensity in fat biopsies” value in series [2] (three weeks after treatment, versus doxorubicin alone) is reported as “reduced senescence-associated (SA) β-galactosidase (β-gal) intensity”.

As for `Nc1nc(O)c2ncn(COC(CO)CO)c2n1` [ganciclovir], the “insulin tolerance testing: decrease in blood glucose” value in series [3] (0, 14, 30, 60 and 120 minutes) is listed as “greater decrease in blood glucose”. The “glucose tolerance test AUC versus vehicle” value in series [3] (3 rounds of 25 mg/kg daily for five days) was “significantly lower”. For the same compound, in series [3] (high fat diet), the “Hemoglobin A1c” value is on record as “lower”. For the same compound, in series [3] (mouse, in vivo), the “body weight, body composition (percent of fat), food intake” value is reported as “did not alter”.
